One compound from PMC10573198, “Synthesis, Physicochemical Characterization using a Facile Validated HPLC Quantitation Analysis Method of 4-Chloro-phenylcarbamoyl-methyl Ciprofloxacin and Its Biological Investigations” (International Journal of Molecular Sciences, 2023) can be followed below.

Assay [1] deals with T1, Topoisomerase IV (Staphylococcus aureus, UniProt P0C1S7+Q2FYS4).
T1 construct: gene parC; with Topoisomerase IV subunit B (ParE); kDNA substrate
The experiment in a line: Topo IV kDNA decatenation assay, agarose gel. The format is biochemical.

The target in assay [2] is T2, DNA gyrase (Staphylococcus aureus, UniProt P0A0K8+P20831).
T2 construct: gene gyrA; with DNA gyrase subunit B (GyrB); plasmid DNA
T2 sequence (P0A0K8 2-644): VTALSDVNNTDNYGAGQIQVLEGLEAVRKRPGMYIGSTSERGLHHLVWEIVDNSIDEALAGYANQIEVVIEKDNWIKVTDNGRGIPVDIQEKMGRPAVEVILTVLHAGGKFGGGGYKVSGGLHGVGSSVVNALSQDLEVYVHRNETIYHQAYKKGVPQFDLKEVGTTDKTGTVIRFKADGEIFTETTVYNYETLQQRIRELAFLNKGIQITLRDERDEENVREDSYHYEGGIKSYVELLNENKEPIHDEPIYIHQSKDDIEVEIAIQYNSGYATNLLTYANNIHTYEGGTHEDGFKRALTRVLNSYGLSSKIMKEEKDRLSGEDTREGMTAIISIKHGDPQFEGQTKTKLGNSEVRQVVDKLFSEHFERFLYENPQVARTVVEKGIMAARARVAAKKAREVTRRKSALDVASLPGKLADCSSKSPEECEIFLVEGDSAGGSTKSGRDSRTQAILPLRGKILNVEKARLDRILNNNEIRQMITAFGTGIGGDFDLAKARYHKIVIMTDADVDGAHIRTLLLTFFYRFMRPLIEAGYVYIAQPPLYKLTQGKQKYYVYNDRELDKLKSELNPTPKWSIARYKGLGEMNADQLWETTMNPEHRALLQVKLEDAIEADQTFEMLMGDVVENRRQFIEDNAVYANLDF
T2 sequence (P20831 whole entry): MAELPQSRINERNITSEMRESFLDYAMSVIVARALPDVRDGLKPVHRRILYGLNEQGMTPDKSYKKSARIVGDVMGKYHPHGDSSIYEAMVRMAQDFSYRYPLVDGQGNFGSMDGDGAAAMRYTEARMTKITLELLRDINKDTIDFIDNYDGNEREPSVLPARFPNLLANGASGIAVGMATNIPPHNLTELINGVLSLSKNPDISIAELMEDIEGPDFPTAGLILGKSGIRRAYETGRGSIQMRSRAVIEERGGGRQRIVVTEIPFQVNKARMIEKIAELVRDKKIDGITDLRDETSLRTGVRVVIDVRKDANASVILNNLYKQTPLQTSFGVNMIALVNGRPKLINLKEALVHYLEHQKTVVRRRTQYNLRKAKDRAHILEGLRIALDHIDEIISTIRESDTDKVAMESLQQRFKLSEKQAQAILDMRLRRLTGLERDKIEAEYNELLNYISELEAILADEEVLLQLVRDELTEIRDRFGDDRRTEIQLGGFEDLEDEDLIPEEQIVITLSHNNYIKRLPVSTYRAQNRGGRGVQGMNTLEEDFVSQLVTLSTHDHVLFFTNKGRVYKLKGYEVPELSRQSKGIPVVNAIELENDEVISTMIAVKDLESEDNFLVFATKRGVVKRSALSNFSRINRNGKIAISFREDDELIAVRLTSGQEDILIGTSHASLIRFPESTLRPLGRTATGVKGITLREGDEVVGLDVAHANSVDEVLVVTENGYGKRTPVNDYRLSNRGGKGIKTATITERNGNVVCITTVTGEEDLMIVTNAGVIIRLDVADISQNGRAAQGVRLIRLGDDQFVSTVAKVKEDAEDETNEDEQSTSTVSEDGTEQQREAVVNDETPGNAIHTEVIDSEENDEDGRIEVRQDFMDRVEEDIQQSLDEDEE
The experiment in a line: S. aureus gyrase supercoiling assay, relaxed pBR322, agarose gel. The class given is biochemical.

T1 sequence (Q2FYS4 whole entry): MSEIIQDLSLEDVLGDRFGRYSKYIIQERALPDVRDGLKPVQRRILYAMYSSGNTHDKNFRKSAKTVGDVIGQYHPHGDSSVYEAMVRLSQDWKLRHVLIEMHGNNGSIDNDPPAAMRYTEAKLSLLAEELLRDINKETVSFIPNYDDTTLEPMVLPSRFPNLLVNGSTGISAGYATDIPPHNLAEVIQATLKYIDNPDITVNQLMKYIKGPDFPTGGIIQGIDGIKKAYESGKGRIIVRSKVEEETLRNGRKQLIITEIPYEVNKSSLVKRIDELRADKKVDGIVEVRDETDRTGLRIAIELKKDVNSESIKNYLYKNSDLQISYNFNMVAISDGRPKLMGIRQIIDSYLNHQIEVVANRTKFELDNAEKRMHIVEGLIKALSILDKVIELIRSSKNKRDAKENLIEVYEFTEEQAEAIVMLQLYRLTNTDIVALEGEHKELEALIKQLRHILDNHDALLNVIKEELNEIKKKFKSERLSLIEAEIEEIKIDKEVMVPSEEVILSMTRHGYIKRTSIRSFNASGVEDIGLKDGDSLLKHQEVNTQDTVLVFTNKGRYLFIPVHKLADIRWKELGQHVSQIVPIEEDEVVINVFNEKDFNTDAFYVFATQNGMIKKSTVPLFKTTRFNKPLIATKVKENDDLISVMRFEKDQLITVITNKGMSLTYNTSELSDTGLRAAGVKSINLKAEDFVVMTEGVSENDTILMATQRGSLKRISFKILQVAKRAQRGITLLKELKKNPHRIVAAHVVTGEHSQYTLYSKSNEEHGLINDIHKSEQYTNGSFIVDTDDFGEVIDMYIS
T1 sequence (P0C1S7 whole entry): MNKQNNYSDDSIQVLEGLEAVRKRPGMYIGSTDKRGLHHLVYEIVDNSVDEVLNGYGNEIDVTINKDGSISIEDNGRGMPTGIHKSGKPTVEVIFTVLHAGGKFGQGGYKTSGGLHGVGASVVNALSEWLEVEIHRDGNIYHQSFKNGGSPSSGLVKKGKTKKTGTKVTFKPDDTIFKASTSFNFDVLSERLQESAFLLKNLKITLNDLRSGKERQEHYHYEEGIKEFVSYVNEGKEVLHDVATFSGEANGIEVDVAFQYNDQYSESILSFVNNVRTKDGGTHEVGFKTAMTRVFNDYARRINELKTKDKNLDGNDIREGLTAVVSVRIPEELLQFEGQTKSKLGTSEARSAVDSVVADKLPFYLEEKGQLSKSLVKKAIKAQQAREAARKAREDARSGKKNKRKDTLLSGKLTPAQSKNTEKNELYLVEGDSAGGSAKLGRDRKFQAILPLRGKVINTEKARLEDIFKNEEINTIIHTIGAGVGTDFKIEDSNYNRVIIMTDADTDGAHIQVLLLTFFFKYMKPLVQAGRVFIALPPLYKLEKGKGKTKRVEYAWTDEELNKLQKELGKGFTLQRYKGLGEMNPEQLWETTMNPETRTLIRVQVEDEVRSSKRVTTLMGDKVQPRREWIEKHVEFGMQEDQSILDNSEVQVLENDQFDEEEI

In the case of `O=C(CN1CCN(c2cc3c(cc2F)c(=O)c(C(=O)O)cn3C2CC2)CC1)Nc1ccc(Cl)cc1` [Cpx-Drv], the 50% inhibitory concentration (IC50) (as a rule, the concentration that gives 50% inhibition) is 3.83 µM in assay [1] and 13.5 µM in assay [2].
